Data from article PMC3187668 (Chemmedchem, 2011).
pIC50: −log10 of the molar value.

Target: PI3Kα (Homo sapiens, UniProt P42336)
Assay: […]-ATP lipid kinase assay
Format: biochemical

Chain of PI3Kα (P42336 whole entry): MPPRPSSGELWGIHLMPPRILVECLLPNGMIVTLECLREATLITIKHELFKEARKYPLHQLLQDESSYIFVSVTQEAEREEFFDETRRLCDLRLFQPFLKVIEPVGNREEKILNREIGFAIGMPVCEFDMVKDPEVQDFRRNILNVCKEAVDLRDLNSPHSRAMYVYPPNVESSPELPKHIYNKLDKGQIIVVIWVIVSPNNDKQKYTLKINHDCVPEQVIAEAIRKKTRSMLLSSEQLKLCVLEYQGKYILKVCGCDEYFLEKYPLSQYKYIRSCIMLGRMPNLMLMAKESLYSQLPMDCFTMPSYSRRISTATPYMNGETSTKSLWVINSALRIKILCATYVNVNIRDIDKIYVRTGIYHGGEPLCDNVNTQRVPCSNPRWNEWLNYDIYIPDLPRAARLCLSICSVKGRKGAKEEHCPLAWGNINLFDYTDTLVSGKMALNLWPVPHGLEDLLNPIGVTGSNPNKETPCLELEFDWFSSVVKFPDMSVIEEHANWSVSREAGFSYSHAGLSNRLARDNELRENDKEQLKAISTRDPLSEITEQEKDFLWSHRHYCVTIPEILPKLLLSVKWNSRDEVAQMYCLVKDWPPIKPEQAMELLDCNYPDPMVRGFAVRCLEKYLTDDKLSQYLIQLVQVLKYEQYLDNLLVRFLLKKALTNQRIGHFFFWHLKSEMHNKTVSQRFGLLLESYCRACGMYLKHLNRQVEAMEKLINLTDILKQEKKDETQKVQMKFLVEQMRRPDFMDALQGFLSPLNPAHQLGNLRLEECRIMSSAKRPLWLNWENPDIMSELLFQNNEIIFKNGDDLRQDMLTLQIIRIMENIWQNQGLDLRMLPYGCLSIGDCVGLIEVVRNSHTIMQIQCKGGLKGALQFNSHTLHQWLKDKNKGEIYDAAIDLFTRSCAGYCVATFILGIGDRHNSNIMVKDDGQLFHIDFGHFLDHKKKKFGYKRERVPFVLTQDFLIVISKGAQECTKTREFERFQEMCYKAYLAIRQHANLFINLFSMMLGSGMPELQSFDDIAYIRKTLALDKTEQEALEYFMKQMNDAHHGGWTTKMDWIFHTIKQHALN
Chain of PI3Kα (P27986 2-724 partner): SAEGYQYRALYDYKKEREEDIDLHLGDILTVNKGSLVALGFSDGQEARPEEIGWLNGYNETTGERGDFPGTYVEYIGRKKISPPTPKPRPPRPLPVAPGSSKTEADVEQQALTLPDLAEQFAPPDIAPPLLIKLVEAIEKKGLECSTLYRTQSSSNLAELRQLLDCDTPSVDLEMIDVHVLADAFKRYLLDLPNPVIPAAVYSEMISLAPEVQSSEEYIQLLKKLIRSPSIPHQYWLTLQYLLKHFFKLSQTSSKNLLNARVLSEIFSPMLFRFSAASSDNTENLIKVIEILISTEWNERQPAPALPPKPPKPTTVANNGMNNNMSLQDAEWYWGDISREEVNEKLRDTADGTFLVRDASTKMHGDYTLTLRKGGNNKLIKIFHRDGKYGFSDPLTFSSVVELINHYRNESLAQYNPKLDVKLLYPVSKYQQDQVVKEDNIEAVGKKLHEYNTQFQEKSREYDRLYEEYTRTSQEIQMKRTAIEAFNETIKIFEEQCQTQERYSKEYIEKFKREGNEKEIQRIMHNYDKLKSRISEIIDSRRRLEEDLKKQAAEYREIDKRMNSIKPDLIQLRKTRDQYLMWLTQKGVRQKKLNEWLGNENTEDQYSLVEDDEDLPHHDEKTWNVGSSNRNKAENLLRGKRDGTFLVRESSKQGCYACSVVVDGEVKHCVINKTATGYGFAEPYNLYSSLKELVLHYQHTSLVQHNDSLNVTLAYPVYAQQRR

pIC50: 8.52
Compound: O=C1NC(=S)SC1=Cc1ccc2nccnc2c1 [compound 19, 19]
